From patent US20140162958A1, “Copolymer-1 Composition and Methods of Use” (priority 2012, published 2014)

How the values were obtained:
[1] = assay type: in vivo, patient (the inventor)
Protocol: A series of compositions comprising an amount of copolymer-1 and a local anesthetic were generated in order to provide for a formulation that was substantially free of Site Reactions upon injection. Briefly, the methodology involved titrating amounts of an injectable local anesthetic (bupivacaine, 0.5%) to a solution of copolymer-1 (provided as COPAXONE®, 20 mg injectable syringe). […] This percentage of local anesthetic is well below clinical dosages typically used for skin infiltration for pain control (e.g. 0.25%). The composition was stable for over 30 days both at room temperature and when refrigerated.
The composition described in Example 1 (0.2 mL of bupivacaine (at 0.5%) added to 1.0 mL COPAXONE®, 20 mg injectable syringe) was used in this Example.
The inventor, Dr. Robbins, an anesthesiologist and pain management specialist familiar with the use of local anesthetics in procedures such as spinal epidurals, has been diagnosed with multiple sclerosis and has been prescribed COPAXONE® in order to treat the disease. […] Oral pain management (Motrin) and immediate icing of the injection site were ineffective in alleviating the pain associated with the COPAXONE® injection. […]

[2] = tested on: 5-hydroxytryptamine (5-HT) induced plasma extravasation; conditions: concentration of about 0.083%; cited from earlier work
[3] = tested on: experimental autoimmune encephalomyelitis (EAE); conditions: in vivo; cited from earlier work
[4] = tested on: exacerbating-remitting form of multiple sclerosis; conditions: daily injections; cited from earlier work
[5] = tested on: RRMS patients; conditions: 40 mg/mL subcutaneous injection three times a week; cited from earlier work

## CC(C)Cc1ccc(C(C)C(=O)O)cc1 (stereo not drawn) [Motrin]
[1]; oral pain management
  alleviation of the pain associated with the COPAXONE injection: ineffective

## CCCCN1CCCCC1C(=O)Nc1c(C)cccc1C (stereo not drawn) [bupivacaine]
[2]
  inhibition of 5-HT induced plasma extravasation: greater than 95%

## copolymer-1
[3]
  suppression of EAE: suppress EAE
[4]
  exacerbations and increases in disability status versus control patients: fewer exacerbations and smaller increases in their disability status
[1]; human, in vivo
  pain / Site Reactions associated with the treatment: skin wheals, immediate pain upon injection and continuing post-injection pain
[5]
  primary endpoint (reducing the annualized relapse rate relative to placebo): met its primary endpoint
